Experimental data: ChEMBL document CHEMBL1201862, “PubChem BioAssay data set” (2004)
The source made the active and inactive calls.

What was measured:
fMet-Leu-Phe receptor = target: T1, fMet-Leu-Phe receptor (Homo sapiens, UniProt P21462); test: FPR ligands, dose response (AID 519); format: functional
T1 sequence (P21462 whole entry): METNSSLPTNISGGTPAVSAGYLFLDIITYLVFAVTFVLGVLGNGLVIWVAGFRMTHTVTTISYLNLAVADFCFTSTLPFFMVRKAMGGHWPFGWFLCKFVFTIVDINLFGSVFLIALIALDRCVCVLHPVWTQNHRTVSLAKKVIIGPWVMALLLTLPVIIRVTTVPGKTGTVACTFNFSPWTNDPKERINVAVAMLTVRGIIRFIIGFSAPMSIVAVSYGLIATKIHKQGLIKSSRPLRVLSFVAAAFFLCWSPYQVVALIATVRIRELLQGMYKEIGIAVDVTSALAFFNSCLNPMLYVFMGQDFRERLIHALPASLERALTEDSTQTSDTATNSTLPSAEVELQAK

Major prion protein = Major prion protein (Homo sapiens, UniProt P04156); format: functional, cell-based
cells [1] = test: cells
[2] = target: Mitogen-activated protein kinase 10 (Homo sapiens, UniProt P53779); test: Dose response biochemical screening assay for inhibitors of c-Jun N-Terminal Kinase 3 (JNK3). [Related pubchem assays: 746 ]
Protein skinhead-1 = target: T2, Protein skinhead-1 (Caenorhabditis elegans, UniProt P34707); format: functional
T2 sequence (P34707 whole entry): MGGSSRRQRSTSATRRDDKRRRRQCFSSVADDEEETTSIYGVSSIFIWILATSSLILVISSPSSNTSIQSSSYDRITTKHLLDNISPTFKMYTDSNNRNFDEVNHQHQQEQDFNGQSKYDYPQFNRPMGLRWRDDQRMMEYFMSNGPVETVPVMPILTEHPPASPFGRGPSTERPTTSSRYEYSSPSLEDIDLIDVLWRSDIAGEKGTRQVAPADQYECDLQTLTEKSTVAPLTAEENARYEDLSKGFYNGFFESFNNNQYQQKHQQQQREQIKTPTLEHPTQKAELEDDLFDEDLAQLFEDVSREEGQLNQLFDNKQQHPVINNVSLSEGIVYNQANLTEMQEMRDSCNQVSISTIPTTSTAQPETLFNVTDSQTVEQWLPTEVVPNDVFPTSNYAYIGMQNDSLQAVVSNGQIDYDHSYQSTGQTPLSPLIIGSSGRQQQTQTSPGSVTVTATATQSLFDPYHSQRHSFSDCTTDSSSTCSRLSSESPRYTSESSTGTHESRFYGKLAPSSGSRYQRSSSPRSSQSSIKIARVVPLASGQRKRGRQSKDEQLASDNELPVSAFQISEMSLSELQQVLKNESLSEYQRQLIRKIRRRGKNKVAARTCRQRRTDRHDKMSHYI

[3] = P. falciparum late gametocyte killing, dose response, luminescence (AID 1117278); format: functional, cell-based;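 also: gametocytes exposed to compound for 24 hours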
[4] = Jurkat T cell cytotoxicity, dose response, cytotoxicity control for P. falciparum gametocyte viability project, luminescence (AID 1117277); format: functional, cell-based;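 also: potency reflects loss of cellular ATP meaning fewer viable cells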
Cytochrome P450 3A4 = Cytochrome P450 3A4 (Homo sapiens, UniProt P08684);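 also: CYP3A4 tested as one member of a cytochrome P450 panel screen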
[5] = target: T3, Aryl hydrocarbon receptor (Homo sapiens, UniProt P35869); test: Luminescence-based cell-based high throughput dose response assay for activators of the Aryl Hydrocarbon Receptor (AHR). [Related pubchem assays: 2796 (Primary screen (AHR activators in singlicate)), 2845 (Confirmation screen (AHR activators in triplicate)), 434939 (Counterscreen (PXR activators in triplicate)), 2804 (Summary (AHR activators))]; format: ADME
T3 sequence (P35869 whole entry): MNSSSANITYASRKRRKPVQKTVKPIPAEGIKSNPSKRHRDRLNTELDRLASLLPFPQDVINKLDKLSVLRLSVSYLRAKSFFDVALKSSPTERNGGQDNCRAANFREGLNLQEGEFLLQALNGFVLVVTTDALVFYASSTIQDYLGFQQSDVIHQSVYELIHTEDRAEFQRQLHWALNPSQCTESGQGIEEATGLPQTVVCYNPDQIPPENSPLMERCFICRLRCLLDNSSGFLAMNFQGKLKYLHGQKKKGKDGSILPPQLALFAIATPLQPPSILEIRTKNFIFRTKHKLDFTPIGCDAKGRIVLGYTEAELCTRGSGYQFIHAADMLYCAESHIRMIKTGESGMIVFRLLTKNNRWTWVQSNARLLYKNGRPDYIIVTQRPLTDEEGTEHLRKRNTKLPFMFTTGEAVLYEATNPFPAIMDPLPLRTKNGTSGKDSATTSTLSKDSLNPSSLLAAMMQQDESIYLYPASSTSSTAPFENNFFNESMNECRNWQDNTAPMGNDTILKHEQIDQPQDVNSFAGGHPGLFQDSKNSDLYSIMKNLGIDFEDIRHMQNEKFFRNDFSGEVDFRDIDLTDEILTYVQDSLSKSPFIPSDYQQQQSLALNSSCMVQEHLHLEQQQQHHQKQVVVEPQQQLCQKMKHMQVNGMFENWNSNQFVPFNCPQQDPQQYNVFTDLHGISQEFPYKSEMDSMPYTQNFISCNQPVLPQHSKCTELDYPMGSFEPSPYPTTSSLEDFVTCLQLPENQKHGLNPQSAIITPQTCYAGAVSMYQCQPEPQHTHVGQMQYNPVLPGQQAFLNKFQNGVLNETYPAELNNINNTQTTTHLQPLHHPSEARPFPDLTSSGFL

cells [6] = test: cells; remark: listed apart in the source
[7] = target: T4, Oxysterols receptor LXR-beta (Homo sapiens, UniProt P55055); format: functional, cell-based;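 also: Cell-based luminescence dose-response assay of agonist activity at LXR, run as a confirmatory counterscreen to a daf-12 agonist screen; HEK293 cells with Gal4-LXR fusion and GAL4-driven luciferase reporter; agonist potency from rising luciferase signal of a Gal4-LXR reporter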
T4 sequence (P55055 whole entry): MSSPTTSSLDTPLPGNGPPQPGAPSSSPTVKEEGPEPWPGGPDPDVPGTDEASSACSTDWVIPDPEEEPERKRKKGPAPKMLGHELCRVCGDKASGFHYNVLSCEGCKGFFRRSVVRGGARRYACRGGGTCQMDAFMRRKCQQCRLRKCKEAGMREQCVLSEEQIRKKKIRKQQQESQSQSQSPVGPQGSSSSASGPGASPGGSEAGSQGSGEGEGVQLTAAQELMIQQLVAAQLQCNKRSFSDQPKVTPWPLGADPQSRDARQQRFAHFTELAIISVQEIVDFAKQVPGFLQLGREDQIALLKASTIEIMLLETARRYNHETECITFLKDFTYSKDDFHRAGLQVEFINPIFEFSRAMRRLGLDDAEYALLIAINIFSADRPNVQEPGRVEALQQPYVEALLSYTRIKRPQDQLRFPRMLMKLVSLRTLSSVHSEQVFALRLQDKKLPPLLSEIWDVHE

[8] = Luminescence Cell-Based Dose Response to Identify Activators of Luciferase Translation or Activity in H4-C Neuroglioblastoma Cells. [Related pubchem assays: 1829 (Project Summary), 1814 (Primary HTS)]; format: functional
[9] = Luminescence Cell-Based Dose Confirmation to Identify Activators of 5'UTR Stem-Loop Driven Alpha-Synuclein mRNA Translation in H4 Neuroglioblastoma Cells. [Related pubchem assays: 1829 (Project Summary), 1814 (Primary HTS)]; format: functional
[10] = Luminescence Cell-Based Dose Confirmation HTS to Identify Activators of 5'UTR Stem-Loop Driven Alpha-Synuclein mRNA Translation in H4 Neuroglioblastoma Cells. [Related pubchem assays: 1829 (Project Summary), 1814 (Primary HTS)]; format: functional
[11] = Luminescence Cell-Based Dose Response to Identify Activators of 5'UTR Stem-Loop Driven Prion Protein mRNA Translation in H4-C Neuroglioblastoma Cells. [Related pubchem assays: 1829 (Project Summary), 1814 (Primary HTS)]; format: functional
[12] = Luminescence Cell-Based Dose Response HTS to Identify Activators of Luciferase Translation or Activity in H4 […] Cells. [Related pubchem assays: 1829 (Project Summary), 1814 (Primary HTS)]; format: functional
H4 = test: Luminescence Cell-Based Dose Response HTS to Identify Activators of 5'UTR Stem-Loop Driven Prion Protein mRNA Translation in H4 Neuroglioblastoma Cells. [Related pubchem assays: 1829 (Project Summary), 1814 (Primary HTS)]; format: functional; settings: Homo sapiens

CCCOc1ccc(C2C(C(=O)c3ccc(C)o3)=C(O)C(=O)N2Cc2cccnc2)cc1 (stereo not drawn)
Ki (fMet-Leu-Phe receptor): 42.7 µM (inactive)

COc1ccc(-c2nnc(-c3ccc(Br)o3)o2)cc1OC
IC50 (Major prion protein): 4.59 µM (active) | IC50 (cells [1]): > 138 µM (inactive) | IC50 [2]: > 93.1 µM (not active) | IC50 (Protein skinhead-1): > 100 µM (inactive)

O=C(O)CCN1C(=O)c2ccc(NC(=O)c3ccco3)cc2C1=O
IC50 [3]: > 109 µM (inactive) | IC50 [4]: > 83.2 µM (inactive)

COc1cccc2c(O)c(C(=O)NCc3cccs3)cnc12
IC50 [2]: 18.9 µM (not active) | AC50 (Cytochrome P450 3A4): 1.78 µM (inconclusive)

CC(=O)Nc1cccc2c1C(=O)N(c1ccc(C)cc1)C2=O
EC50 [5]: 1.09 µM (active)

CC(C)c1ccc(-n2nc3ccc(N)cc3n2)cc1
EC50 (cells [6]): > 67.6 µM (inactive) | EC50 [7]: > 67.6 µM (inactive)

CCOc1c(Cl)cc(C(=O)Nc2cccc(C(=O)O)c2)cc1Cl
IC50 [3]: > 109 µM (inactive) | IC50 [4]: > 83.2 µM (inactive)

Cc1ccc(NC(=O)C2C(=O)N(CCO)C3(C)CC2c2ccccc2O3)cc1 (stereo not drawn)
Ki (fMet-Leu-Phe receptor): > 66.7 µM (inactive)

Cc1cc(C)cc(COn2ccnc2)c1
IC50 [3]: > 109 µM (inactive) | IC50 [4]: > 83.4 µM (inactive)

Cc1nc(N)nc(Nc2ccc(Cl)cc2)c1Br
EC50 [5]: 0.351 µM (active)

Cc1ccc2c(c1)Cc1nc3ccccc3nc1-2
EC50 (cells [6]): > 67.6 µM (inactive) | EC50 [7]: > 67.6 µM (inactive)

COc1cccc(NC(=O)c2ccncc2)c1
IC50 [3]: > 109 µM (inactive) | IC50 [4]: > 83.4 µM (inactive)

Oc1ncnc2nn(-c3ccccc3)nc12
EC50 [8]: > 12 µM (not active) | EC50 [9]: > 12 µM (not active) | EC50 [10]: < 0.1 µM (active) | EC50 [11]: 4.54 µM (active) | EC50 [12]: > 120 µM (not active) | EC50 (H4): > 120 µM (not active)
